Experimental data as given in patent publication US9695155B2, “Herbicidal substituted pyrimidinyloxy benzene compounds” (E. I. DU PONT DE NEMOURS AND COMPANY, priority 2013, dated 2017).

How the values were obtained:
pigweed [1] = assay: Test C preemergence; format: in vivo, Amaranthus retroflexus; conditions: Amaranthus retroflexus, pre-emergence
How it was run: (§1)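 Visual ratings on a 0–100 scale (100 = complete control) were made versus untreated controls after 13–15 greenhouse days. Chemicals in a surfactant-containing non-phytotoxic solvent were applied either preemergence to seeds in loam–sand soil or postemergence to 1- to 4-leaf plants 2–18 cm tall.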

rice = assay: Test B flooded paddy test; format: in vivo, Oryza sativa; conditions: Oryza sativa; Flood, 250 g ai/ha; 0 to 100 scale where 0 is no effect and 100 is complete control; read-out: Plant response rating, Rice
How it was run: (§2)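 Compound added straight to paddy water, with pots kept flooded 3 cm above soil, on plants grown to the 2-leaf stage. Visual scoring 0-100 (100 = complete control) against untreated controls after 13 to 15 greenhouse days.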

kochia = assay: Test C postemergence; format: in vivo, Kochia scoparia; conditions: Bassia scoparia, post-emergence
How it was run: as §1

blackgrass = assay: Test C postemergence; format: in vivo, Alopecurus myosuroides; conditions: Alopecurus myosuroides, post-emergence
How it was run: as §1

pigweed [2] = assay: Test C postemergence; format: in vivo, Amaranthus retroflexus; conditions: Amaranthus retroflexus, post-emergence
How it was run: as §1

soybean = assay: Test C postemergence; format: in vivo, Glycine max; conditions: Glycine max, post-emergence
How it was run: as §1

barnyardgrass = assay: Test C postemergence; format: in vivo, Echinochloa crus-galli; conditions: Echinochloa crus-galli, post-emergence
How it was run: as §1

morningglory = assay: Test A postemergence; format: in vivo, Ipomoea spp.; conditions: Ipomoea, post-emergence, 240 h
How it was run: (§3)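 Compounds in non-phytotoxic solvent with surfactant applied as soil spray preemergence, or postemergence to plants 2-10 cm at one- to two-leaf stage, in loam/sand. After approximately 10 days in greenhouse, injury rated visually versus untreated controls, 0 (no effect) to 100 (complete control).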

Italian ryegrass = assay: Test C postemergence; format: in vivo, Lolium multiflorum; conditions: Lolium multiflorum, post-emergence
How it was run: as §1

lambsquarters [3] = assay: Test C preemergence; format: in vivo, Chenopodium album; conditions: Chenopodium album, pre-emergence
How it was run: as §1

wheat, winter = assay: Test C preemergence; format: in vivo, Triticum aestivum; conditions: Triticum aestivum, pre-emergence
How it was run: as §1

corn = assay: Test A preemergence; format: in vivo, Zea mays; conditions: Zea mays, pre-emergence, 240 h
How it was run: as §3

lambsquarters [4] = assay: Test C postemergence; format: in vivo, Chenopodium album; conditions: Chenopodium album, post-emergence
How it was run: as §1

yellow nutsedge = assay: Test C preemergence; format: in vivo, Cyperus esculentus; conditions: Cyperus, pre-emergence, preemergence, scale 0 (no effect) to 100 (complete control), read-out: Nutsedge, Yellow plant response rating
How it was run: as §1

Heteranthera limosa = assay: Test B flooded paddy test; format: in vivo; conditions: Heteranthera limosa, Flood, 250 g ai/ha; 0 to 100 scale where 0 is no effect and 100 is complete control; read-out: Plant response rating, Ducksalad
How it was run: as §2

N#Cc1cccc(Oc2ncc(Br)cn2)c1-n1cc(C(F)(F)F)cn1 [Compound 59, 3-[(5-bromo-2-pyrimidinyl)oxy]-2-[4-(trifluoromethyl)-1H-pyrazol-1-yl]benzonitrile]
pest or weed control at 62 g/ha (pigweed [1]; 62 g ai/ha, preemergence, scale 0 (no effect) to 100 (complete control), read-out: Pigweed plant response rating): 100%
pest or weed control at 125 g/ha (pigweed [1]; 125 g ai/ha, preemergence, scale 0 (no effect) to 100 (complete control), read-out: Pigweed plant response rating): 100%
pest or weed control at 250 g/ha (pigweed [1]; 250 g ai/ha, preemergence, scale 0 (no effect) to 100 (complete control), read-out: Pigweed plant response rating): 100%
pest or weed control at 31 g/ha (pigweed [1]; Preemergence, 31 g ai/ha, scale 0 to 100, 0 no effect, 100 complete control, read-out: Plant response rating, Pigweed): 100%
plant injury at 250 g/ha (rice): 20%
pest or weed control at 125 g/ha (kochia; 125 g ai/ha, postemergence, read-out: Plant response rating (0 to 100), Kochia): 100%
pest or weed control at 250 g/ha (kochia; 250 g ai/ha, postemergence, read-out: Plant response rating (0 to 100), Kochia): 100%
pest or weed control at 31 g/ha (kochia; Postemergence, 31 g ai/ha, scale 0 to 100 (0 no effect, 100 complete control), 13 to 15 days, read-out: Plant response rating, Kochia): 95%
pest or weed control at 62 g/ha (kochia; Postemergence, 62 g ai/ha, scale 0 to 100 (0 no effect, 100 complete control), read-out: Plant response rating, Kochia): 100%
pest or weed control at 125 g/ha (blackgrass; 125 g ai/ha, postemergence, read-out: Plant response rating (0 to 100), Blackgrass): 25%
pest or weed control at 250 g/ha (blackgrass; 250 g ai/ha, postemergence, read-out: Plant response rating (0 to 100), Blackgrass): 40%
pest or weed control at 31 g/ha (blackgrass; Postemergence, 31 g ai/ha, scale 0 to 100 (0 no effect, 100 complete control), 13 to 15 days, read-out: Plant response rating, Blackgrass): 5%
pest or weed control at 62 g/ha (blackgrass; Postemergence, 62 g ai/ha, scale 0 to 100 (0 no effect, 100 complete control), read-out: Plant response rating, Blackgrass): 10%
pest or weed control at 125 g/ha (pigweed [2]; 125 g ai/ha, postemergence, read-out: Plant response rating (0 to 100), Pigweed): 95%
pest or weed control at 250 g/ha (pigweed [2]; 250 g ai/ha, postemergence, read-out: Plant response rating (0 to 100), Pigweed): 98%
pest or weed control at 31 g/ha (pigweed [2]; Postemergence, 31 g ai/ha, scale 0 to 100 (0 no effect, 100 complete control), 13 to 15 days, read-out: Plant response rating, Pigweed): 80%
pest or weed control at 62 g/ha (pigweed [2]; Postemergence, 62 g ai/ha, scale 0 to 100 (0 no effect, 100 complete control), read-out: Plant response rating, Pigweed): 90%
Soybean plant response rating (crop injury, 0-100 scale) at 125 g/ha (soybean; 125 g ai/ha, postemergence, read-out: Plant response rating (0 to 100), Soybean): 98%
Soybean plant response rating (crop injury, 0-100 scale) at 250 g/ha (soybean; 250 g ai/ha, postemergence): 98%
Soybean plant response rating (crop injury, 0-100 scale) at 31 g/ha (soybean; Postemergence, 31 g ai/ha, scale 0 to 100 (0 no effect, 100 complete control), 13 to 15 days): 75%
Soybean plant response rating (crop injury, 0-100 scale) at 62 g/ha (soybean; Postemergence, 62 g ai/ha, scale 0 to 100 (0 no effect, 100 complete control)): 85%
pest or weed control at 125 g/ha (barnyardgrass; 125 g ai/ha, postemergence, read-out: Plant response rating (0 to 100), Barnyardgrass): 10%
pest or weed control at 250 g/ha (barnyardgrass; 250 g ai/ha, postemergence, read-out: Plant response rating (0 to 100), Barnyardgrass): 25%
pest or weed control at 31 g/ha (barnyardgrass; Postemergence, 31 g ai/ha, scale 0 to 100 (0 no effect, 100 complete control), 13 to 15 days, read-out: Plant response rating, Barnyardgrass): 5%
pest or weed control at 62 g/ha (barnyardgrass; Postemergence, 62 g ai/ha, scale 0 to 100 (0 no effect, 100 complete control), read-out: Plant response rating, Barnyardgrass): 5%
pest or weed control at 125 g/ha (morningglory; 125 g ai/ha, 0 to 100 scale where 0 is no effect and 100 is complete control, read-out: Plant response rating, Morningglory): 90%
pest or weed control at 500 g/ha (morningglory; 500 g ai/ha, 0 to 100 scale, 0 no effect, 100 complete control, read-out: Plant response rating Morningglory): 100%
pest or weed control at 125 g/ha (Italian ryegrass; 125 g ai/ha, postemergence, read-out: Plant response rating (0 to 100), Ryegrass, Italian): 10%
pest or weed control at 250 g/ha (Italian ryegrass; 250 g ai/ha, postemergence, read-out: Plant response rating (0 to 100), Ryegrass, Italian): 30%
pest or weed control at 31 g/ha (Italian ryegrass; Postemergence, 31 g ai/ha, scale 0 to 100 (0 no effect, 100 complete control), 13 to 15 days, read-out: Plant response rating, Ryegrass, Italian): 5%
pest or weed control at 62 g/ha (Italian ryegrass; Postemergence, 62 g ai/ha, scale 0 to 100 (0 no effect, 100 complete control), read-out: Plant response rating, Ryegrass, Italian): 10%
pest or weed control at 62 g/ha (lambsquarters [3]; 62 g ai/ha, preemergence, scale 0 (no effect) to 100 (complete control), read-out: Lambsquarters plant response rating): 100%
pest or weed control at 125 g/ha (lambsquarters [3]; 125 g ai/ha, preemergence, scale 0 (no effect) to 100 (complete control), read-out: Lambsquarters plant response rating): 100%
pest or weed control at 250 g/ha (lambsquarters [3]; 250 g ai/ha, preemergence, scale 0 (no effect) to 100 (complete control), read-out: Lambsquarters plant response rating): 100%
pest or weed control at 31 g/ha (lambsquarters [3]; Preemergence, 31 g ai/ha, scale 0 to 100, 0 no effect, 100 complete control, read-out: Plant response rating, Lambsquarters): 100%
plant injury at 62 g/ha (wheat, winter; 62 g ai/ha, preemergence, scale 0 (no effect) to 100 (complete control), read-out: Wheat plant response rating): 50%
plant injury at 125 g/ha (wheat, winter; 125 g ai/ha, preemergence, scale 0 (no effect) to 100 (complete control), read-out: Wheat plant response rating): 85%
plant injury at 250 g/ha (wheat, winter; 250 g ai/ha, preemergence, scale 0 (no effect) to 100 (complete control), read-out: Wheat plant response rating): 90%
plant injury at 31 g/ha (wheat, winter; Preemergence, 31 g ai/ha, scale 0 to 100, 0 no effect, 100 complete control, read-out: Plant response rating, Wheat): 0%
Corn plant response rating (crop injury, 0 = no effect, 100 = complete kill) at 125 g/ha (corn; 125 g ai/ha, 0 to 100 scale where 0 is no effect and 100 is complete control): 20%
plant injury at 500 g/ha (corn; 500 g ai/ha, 0 to 100 scale, 0 no effect, 100 complete control, approx. 10 days, read-out: Corn plant response rating): 30%
pest or weed control at 125 g/ha (lambsquarters [4]; 125 g ai/ha, postemergence, read-out: Plant response rating (0 to 100), Lambsquarters): 90%
pest or weed control at 250 g/ha (lambsquarters [4]; 250 g ai/ha, postemergence, read-out: Plant response rating (0 to 100), Lambsquarters): 90%
pest or weed control at 31 g/ha (lambsquarters [4]; Postemergence, 31 g ai/ha, scale 0 to 100 (0 no effect, 100 complete control), 13 to 15 days, read-out: Plant response rating, Lambsquarters): 70%
pest or weed control at 62 g/ha (lambsquarters [4]; Postemergence, 62 g ai/ha, scale 0 to 100 (0 no effect, 100 complete control), read-out: Plant response rating, Lambsquarters): 80%
pest or weed control at 62 g/ha (yellow nutsedge; 62 g ai/ha): 65%
pest or weed control at 125 g/ha (yellow nutsedge; 125 g ai/ha): 85%
pest or weed control at 250 g/ha (yellow nutsedge; 250 g ai/ha): 90%
pest or weed control at 250 g/ha (Heteranthera limosa): 80%
